Laboratory results published in ChEMBL document CHEMBL4507269, “Data for DCP probe BAY-386” (2021).

Key:
[1] = system: Tyrosine-protein kinase ABL1 (Homo sapiens), P00519 [H396P]; conditions: Compound concentration 1000.0 nM
[2] = system: Tyrosine-protein kinase ABL1 (Homo sapiens), P00519 [F317L]; conditions: Compound concentration 1000.0 nM
[3] = molecular target: Ribosomal protein S6 kinase alpha-1 (Homo sapiens) (UniProt Q15418); conditions: Compound concentration 1000.0 nM
[4] = system: Epidermal growth factor receptor (Homo sapiens), P00533 [L858R]; conditions: Compound concentration 1000.0 nM
[5] = molecular target: Serine/threonine-protein kinase 17A (Homo sapiens) (UniProt Q9UEE5); conditions: Compound concentration 1000.0 nM
[6] = molecular target: Serine/threonine-protein kinase MRCK alpha (Homo sapiens) (UniProt Q5VT25); conditions: Compound concentration 1000.0 nM
[7] = molecular target: Tyrosine-protein kinase Fgr (Homo sapiens) (UniProt P09769); conditions: Compound concentration 1000.0 nM
Tyrosine-protein kinase Fgr (Homo sapiens), sequence (P09769 2-529 limits assumed): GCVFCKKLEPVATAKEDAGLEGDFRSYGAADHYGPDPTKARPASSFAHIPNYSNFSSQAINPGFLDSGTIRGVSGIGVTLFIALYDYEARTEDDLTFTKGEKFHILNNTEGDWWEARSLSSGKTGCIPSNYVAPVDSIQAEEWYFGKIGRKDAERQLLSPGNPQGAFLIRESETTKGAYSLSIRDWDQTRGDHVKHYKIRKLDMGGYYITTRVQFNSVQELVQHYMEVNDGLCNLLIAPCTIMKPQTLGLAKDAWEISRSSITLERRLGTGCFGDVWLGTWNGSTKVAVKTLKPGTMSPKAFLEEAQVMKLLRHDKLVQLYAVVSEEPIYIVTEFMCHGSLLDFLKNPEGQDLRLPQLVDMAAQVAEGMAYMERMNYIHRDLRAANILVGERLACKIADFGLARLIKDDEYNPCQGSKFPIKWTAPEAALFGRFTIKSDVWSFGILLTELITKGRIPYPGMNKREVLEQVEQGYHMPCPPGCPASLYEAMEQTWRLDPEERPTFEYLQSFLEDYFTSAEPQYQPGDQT

[8] = molecular target: T1, D(4) dopamine receptor (Homo sapiens) (UniProt P21917); conditions: Compound concentration 10.0 uM
T1 sequence (whole entry): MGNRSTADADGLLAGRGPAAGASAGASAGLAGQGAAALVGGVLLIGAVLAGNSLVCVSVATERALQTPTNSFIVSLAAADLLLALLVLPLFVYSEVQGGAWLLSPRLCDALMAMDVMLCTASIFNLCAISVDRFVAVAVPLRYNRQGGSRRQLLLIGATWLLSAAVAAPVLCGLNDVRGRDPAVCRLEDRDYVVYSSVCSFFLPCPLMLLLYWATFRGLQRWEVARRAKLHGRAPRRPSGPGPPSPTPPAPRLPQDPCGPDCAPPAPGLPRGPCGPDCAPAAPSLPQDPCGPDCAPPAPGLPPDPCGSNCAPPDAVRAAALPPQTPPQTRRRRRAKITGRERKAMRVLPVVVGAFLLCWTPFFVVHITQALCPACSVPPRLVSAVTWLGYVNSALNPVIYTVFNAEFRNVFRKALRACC

[9] = molecular target: Interferon-induced, double-stranded RNA-activated protein kinase (Homo sapiens) (UniProt P19525); conditions: Compound concentration 1000.0 nM
[10] = system: Receptor-type tyrosine-protein kinase FLT3 (Homo sapiens), P36888 [D835V]; conditions: Compound concentration 1000.0 nM
[11] = molecular target: Glycogen synthase kinase-3 alpha (Homo sapiens) (UniProt P49840); conditions: Compound concentration 1000.0 nM
[12] = molecular target: Mu-type opioid receptor (Homo sapiens) (UniProt P35372); conditions: Compound concentration 10.0 uM
[13] = molecular target: Serine/threonine-protein kinase 3 (Homo sapiens) (UniProt Q13188); conditions: Compound concentration 1000.0 nM
[14] = molecular target: Phosphatidylinositol 4,5-bisphosphate 3-kinase catalytic subunit gamma isoform (Homo sapiens) (UniProt P48736); conditions: Compound concentration 1000.0 nM
[15] = molecular target: Macrophage colony-stimulating factor 1 receptor (Homo sapiens) (UniProt P07333); conditions: Compound concentration 1000.0 nM
Macrophage colony-stimulating factor 1 receptor (Homo sapiens), sequence (P07333 whole entry): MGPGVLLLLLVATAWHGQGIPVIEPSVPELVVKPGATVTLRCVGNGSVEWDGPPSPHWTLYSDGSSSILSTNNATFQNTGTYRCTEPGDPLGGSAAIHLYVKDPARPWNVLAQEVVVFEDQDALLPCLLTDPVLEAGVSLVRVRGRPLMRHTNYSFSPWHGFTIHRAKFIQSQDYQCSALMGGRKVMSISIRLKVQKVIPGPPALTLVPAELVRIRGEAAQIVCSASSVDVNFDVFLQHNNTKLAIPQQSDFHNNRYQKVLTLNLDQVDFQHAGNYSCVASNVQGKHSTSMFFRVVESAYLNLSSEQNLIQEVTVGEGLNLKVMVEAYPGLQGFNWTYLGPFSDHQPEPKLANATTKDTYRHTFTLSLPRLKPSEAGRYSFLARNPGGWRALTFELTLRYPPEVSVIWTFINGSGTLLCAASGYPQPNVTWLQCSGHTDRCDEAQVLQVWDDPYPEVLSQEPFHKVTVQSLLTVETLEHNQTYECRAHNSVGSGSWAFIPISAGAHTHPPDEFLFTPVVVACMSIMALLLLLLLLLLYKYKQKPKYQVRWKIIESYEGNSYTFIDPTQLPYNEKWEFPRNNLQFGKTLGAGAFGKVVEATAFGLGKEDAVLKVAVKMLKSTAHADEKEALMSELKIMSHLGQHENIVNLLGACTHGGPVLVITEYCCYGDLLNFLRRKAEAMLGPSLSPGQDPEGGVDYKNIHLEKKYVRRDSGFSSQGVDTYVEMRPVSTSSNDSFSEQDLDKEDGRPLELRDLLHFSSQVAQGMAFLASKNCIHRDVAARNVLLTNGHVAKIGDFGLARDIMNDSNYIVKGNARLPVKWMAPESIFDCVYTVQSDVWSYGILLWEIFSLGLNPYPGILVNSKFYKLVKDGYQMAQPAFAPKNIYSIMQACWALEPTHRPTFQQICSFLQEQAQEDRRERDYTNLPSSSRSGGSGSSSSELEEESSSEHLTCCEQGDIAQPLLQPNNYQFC

[16] = molecular target: Receptor tyrosine-protein kinase erbB-2 (Homo sapiens) (UniProt P04626); conditions: Compound concentration 1000.0 nM
[17] = molecular target: Wee1-like protein kinase (Homo sapiens) (UniProt P30291); conditions: Compound concentration 1000.0 nM
[18] = molecular target: Mitogen-activated protein kinase 4 (Homo sapiens) (UniProt P31152); conditions: Compound concentration 1000.0 nM
[19] = molecular target: 5'-AMP-activated protein kinase catalytic subunit alpha-1 (Homo sapiens) (UniProt Q13131); conditions: Compound concentration 1000.0 nM
[20] = system: Phosphatidylinositol 4,5-bisphosphate 3-kinase catalytic subunit alpha isoform (Homo sapiens), P42336 [Q546K]; conditions: Compound concentration 1000.0 nM
[21] = molecular target: Tyrosine-protein kinase Blk (Homo sapiens) (UniProt P51451); conditions: Compound concentration 1000.0 nM
[22] = molecular target: Serine/threonine-protein kinase Sgk2 (Homo sapiens) (UniProt Q9HBY8); conditions: Compound concentration 1000.0 nM
[23] = molecular target: Serine/threonine-protein kinase SIK3 (Homo sapiens) (UniProt Q9Y2K2); conditions: Compound concentration 1000.0 nM
Serine/threonine-protein kinase SIK3 (Homo sapiens), sequence (Q9Y2K2 whole entry, looked up): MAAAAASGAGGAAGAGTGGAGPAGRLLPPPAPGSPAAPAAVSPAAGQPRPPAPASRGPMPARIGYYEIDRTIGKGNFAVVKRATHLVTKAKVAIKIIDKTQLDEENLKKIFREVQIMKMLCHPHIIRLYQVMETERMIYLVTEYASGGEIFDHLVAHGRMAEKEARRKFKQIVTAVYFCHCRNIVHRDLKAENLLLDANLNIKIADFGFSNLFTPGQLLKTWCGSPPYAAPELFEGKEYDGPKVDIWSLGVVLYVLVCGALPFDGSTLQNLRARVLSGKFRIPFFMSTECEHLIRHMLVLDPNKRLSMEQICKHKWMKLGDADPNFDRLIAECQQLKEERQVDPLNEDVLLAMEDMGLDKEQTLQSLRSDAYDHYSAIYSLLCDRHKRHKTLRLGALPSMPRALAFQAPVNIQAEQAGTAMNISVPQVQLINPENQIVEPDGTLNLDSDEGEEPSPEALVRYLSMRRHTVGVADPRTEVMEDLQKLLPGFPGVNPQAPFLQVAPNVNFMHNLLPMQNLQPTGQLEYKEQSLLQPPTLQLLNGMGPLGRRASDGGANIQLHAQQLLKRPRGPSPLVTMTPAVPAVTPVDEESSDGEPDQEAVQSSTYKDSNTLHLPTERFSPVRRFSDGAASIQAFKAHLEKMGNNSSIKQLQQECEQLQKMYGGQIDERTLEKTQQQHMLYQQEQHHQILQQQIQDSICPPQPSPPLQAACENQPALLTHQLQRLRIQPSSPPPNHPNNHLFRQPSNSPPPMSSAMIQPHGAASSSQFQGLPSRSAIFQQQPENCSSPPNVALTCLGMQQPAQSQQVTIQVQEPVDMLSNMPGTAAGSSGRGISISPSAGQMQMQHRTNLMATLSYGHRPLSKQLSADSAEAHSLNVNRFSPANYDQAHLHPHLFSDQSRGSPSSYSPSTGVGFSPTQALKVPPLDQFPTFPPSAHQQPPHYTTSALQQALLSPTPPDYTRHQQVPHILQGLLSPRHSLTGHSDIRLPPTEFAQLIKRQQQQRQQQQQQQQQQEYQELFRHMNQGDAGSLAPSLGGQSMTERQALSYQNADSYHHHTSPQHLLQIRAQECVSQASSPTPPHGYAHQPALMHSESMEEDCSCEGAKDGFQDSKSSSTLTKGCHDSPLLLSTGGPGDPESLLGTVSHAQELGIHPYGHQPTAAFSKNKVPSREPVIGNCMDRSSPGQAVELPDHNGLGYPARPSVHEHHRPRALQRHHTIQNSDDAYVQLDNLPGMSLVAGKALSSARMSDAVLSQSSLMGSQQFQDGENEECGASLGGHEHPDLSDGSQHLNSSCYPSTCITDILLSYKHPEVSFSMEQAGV

[24] = molecular target: Serine/threonine-protein kinase ICK (Homo sapiens) (UniProt Q9UPZ9); conditions: Compound concentration 1000.0 nM
[25] = molecular target: Protein kinase C iota type (Homo sapiens) (UniProt P41743); conditions: Compound concentration 1000.0 nM
[26] = molecular target: Interleukin-1 receptor-associated kinase 4 (Homo sapiens) (UniProt Q9NWZ3); conditions: Compound concentration 1000.0 nM
Interleukin-1 receptor-associated kinase 4 (Homo sapiens), sequence (Q9NWZ3 whole entry): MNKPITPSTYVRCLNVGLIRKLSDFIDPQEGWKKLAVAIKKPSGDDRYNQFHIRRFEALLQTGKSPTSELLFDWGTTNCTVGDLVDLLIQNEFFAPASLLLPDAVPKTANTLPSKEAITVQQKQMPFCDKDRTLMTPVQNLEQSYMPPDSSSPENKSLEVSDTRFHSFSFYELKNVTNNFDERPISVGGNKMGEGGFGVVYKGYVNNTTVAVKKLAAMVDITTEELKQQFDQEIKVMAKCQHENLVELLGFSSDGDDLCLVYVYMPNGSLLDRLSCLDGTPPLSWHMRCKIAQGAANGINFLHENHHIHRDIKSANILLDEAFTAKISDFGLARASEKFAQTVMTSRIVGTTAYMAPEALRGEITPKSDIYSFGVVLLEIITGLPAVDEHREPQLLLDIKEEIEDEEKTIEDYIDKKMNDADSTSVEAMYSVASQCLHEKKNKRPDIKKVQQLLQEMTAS

[27] = molecular target: Serine/threonine-protein kinase PAK 6 (Homo sapiens) (UniProt Q9NQU5); conditions: Compound concentration 1000.0 nM
[28] = molecular target: Proto-oncogene tyrosine-protein kinase receptor Ret (Homo sapiens) (UniProt P07949); conditions: Compound concentration 1000.0 nM
[29] = molecular target: Mitogen-activated protein kinase 13 (Homo sapiens) (UniProt O15264); conditions: Compound concentration 1000.0 nM
[30] = molecular target: Sigma intracellular receptor 2 (Homo sapiens, UniProt Q5BJF2); conditions: Compound concentration 10.0 uM
Sigma intracellular receptor 2, sequence (Q5BJF2 whole entry): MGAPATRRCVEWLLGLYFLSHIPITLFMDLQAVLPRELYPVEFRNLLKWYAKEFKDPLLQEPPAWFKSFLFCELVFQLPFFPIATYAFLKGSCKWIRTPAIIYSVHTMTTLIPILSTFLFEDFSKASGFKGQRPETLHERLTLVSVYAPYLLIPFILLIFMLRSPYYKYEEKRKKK

[31] = molecular target: Cyclin-dependent kinase 2 homolog (Plasmodium falciparum (isolate 3D7)) (UniProt P61075); conditions: Compound concentration 1000.0 nM
[32] = molecular target: Serine/threonine-protein kinase 10 (Homo sapiens) (UniProt O94804); conditions: Compound concentration 1000.0 nM
[33] = molecular target: Casein kinase I isoform delta (Homo sapiens) (UniProt P48730); conditions: Compound concentration 1000.0 nM
[34] = molecular target: Vascular endothelial growth factor receptor 1 (Homo sapiens) (UniProt P17948); conditions: Compound concentration 1000.0 nM
[35] = molecular target: NUAK family SNF1-like kinase 2 (Homo sapiens) (UniProt Q9H093); conditions: Compound concentration 1000.0 nM
[36] = system: Fibroblast growth factor receptor 3 (Homo sapiens), P22607 [G697C]; conditions: Compound concentration 1000.0 nM
Fibroblast growth factor receptor 3 (Homo sapiens), P22607 [G697C], sequence (P22607 whole entry G697C): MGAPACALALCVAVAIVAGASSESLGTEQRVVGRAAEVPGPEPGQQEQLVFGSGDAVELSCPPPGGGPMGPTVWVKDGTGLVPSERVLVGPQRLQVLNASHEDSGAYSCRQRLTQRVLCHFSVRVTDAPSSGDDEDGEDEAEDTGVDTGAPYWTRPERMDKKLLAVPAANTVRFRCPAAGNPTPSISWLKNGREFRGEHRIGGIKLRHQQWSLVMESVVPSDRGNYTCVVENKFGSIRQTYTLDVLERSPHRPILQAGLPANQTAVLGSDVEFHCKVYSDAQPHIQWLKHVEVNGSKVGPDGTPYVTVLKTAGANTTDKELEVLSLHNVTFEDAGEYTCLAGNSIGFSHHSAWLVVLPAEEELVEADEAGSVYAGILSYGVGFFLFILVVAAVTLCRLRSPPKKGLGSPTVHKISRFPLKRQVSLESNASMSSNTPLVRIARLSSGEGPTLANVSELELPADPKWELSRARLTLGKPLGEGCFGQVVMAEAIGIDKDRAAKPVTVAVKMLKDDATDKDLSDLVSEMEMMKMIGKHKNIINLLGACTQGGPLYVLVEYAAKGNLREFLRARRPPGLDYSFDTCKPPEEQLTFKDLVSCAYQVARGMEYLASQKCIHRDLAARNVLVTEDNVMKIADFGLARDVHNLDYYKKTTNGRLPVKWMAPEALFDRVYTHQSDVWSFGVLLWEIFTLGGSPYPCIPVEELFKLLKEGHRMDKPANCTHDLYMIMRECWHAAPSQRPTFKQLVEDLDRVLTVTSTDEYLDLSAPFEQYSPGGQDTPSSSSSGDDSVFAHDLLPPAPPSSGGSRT

[37] = molecular target: Maternal embryonic leucine zipper kinase (Homo sapiens) (UniProt Q14680); conditions: Compound concentration 1000.0 nM
[38] = molecular target: Mitogen-activated protein kinase 14 (Homo sapiens) (UniProt Q16539); conditions: Compound concentration 1000.0 nM
[39] = molecular target: Macrophage colony-stimulating factor 1 receptor (Homo sapiens) (UniProt P07333); conditions: Compound concentration 1000.0 nM; remark: listed apart in the source

Ribosomal protein S6 kinase alpha-1 (Homo sapiens), sequence (Q15418 whole entry): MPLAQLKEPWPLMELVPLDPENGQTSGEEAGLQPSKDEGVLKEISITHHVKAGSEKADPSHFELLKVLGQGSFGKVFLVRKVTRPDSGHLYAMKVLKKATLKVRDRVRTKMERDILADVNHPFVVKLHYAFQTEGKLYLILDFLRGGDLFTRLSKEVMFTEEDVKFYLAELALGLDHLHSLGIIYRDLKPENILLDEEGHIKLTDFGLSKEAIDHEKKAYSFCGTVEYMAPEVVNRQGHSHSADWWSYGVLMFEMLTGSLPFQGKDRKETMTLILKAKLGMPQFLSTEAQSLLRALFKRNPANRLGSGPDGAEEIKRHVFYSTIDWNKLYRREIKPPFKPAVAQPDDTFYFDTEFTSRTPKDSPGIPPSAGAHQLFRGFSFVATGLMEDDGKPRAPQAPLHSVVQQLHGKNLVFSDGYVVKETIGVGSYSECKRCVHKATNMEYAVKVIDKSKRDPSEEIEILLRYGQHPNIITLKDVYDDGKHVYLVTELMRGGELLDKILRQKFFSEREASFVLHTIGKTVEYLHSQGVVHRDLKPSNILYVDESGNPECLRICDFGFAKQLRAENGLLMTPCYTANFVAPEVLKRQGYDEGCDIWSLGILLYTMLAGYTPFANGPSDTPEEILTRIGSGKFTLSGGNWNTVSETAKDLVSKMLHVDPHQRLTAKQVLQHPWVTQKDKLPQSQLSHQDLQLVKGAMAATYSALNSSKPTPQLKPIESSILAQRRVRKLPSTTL

Compound	residual activity [1]	residual activity [2]	residual activity [3]	residual activity [4]	residual activity [5]	residual activity [6]	residual activity [7]	inhibition [8]	residual activity [9]	residual activity [10]	residual activity [11]	inhibition [12]	residual activity [13]	residual activity [14]	residual activity [15]	residual activity [16]	residual activity [17]	residual activity [18]	residual activity [19]	residual activity [20]	further results
O=C(N1CCS(=O)(=O)CC1)N1C[C@H](c2ccc(OC(F)(F)F)cc2)C[C@H](c2nc(C3CC3)no2)C1 [BAY-386]	100%	92%	100%	100%	100%	100%	100%	5.24%	100%	100%	100%	-4.38%	100%	100%	100%	100%	100%	100%	100%	83%	residual activity [21]: 100%; residual activity [22]: 76%; residual activity [23]: 77%; residual activity [24]: 100%; residual activity [25]: 100%; residual activity [26]: 80%; residual activity [27]: 100%; residual activity [28]: 93%; residual activity [29]: 100%; inhibition [30]: 67.7%; residual activity [31]: 100%; residual activity [32]: 100%; residual activity [33]: 100%; residual activity [34]: 100%; residual activity [35]: 100%; residual activity [36]: 100%; residual activity [37]: 100%; residual activity [38]: 100%; residual activity [39]: 100%
Cc1noc([C@H]2C[C@@H](c3ccc(C(F)(F)F)cc3)CN(C(=O)N3CCS(=O)(=O)C3)C2)n1 [BAY-448]	100%	85%	87%	100%	100%	100%	100%	6.3%	100%	91%	79%	2.23%	100%	85%	100%	100%	100%	100%	100%	100%	residual activity [21]: 100%; residual activity [22]: 100%; residual activity [23]: 78%; residual activity [24]: 62%; residual activity [25]: 100%; residual activity [26]: 83%; residual activity [27]: 100%; residual activity [28]: 100%; residual activity [29]: 100%; inhibition [30]: 42.4%; residual activity [31]: 80%; residual activity [32]: 100%; residual activity [33]: 100%; residual activity [34]: 100%; residual activity [35]: 100%; residual activity [36]: 84%; residual activity [37]: 100%; residual activity [38]: 79%; residual activity [39]: 100%
